Measured values: patent publication US10662221B2, “Cystargolide compounds and uses thereof” (UNIVERSITY OF PRINCE EDWARD ISLAND, priority 2015, dated 2020)
“And” between values parts separate entries of the source, which are not always exact repeats. Identical values can stand only once.

Assays:
[1] = target: T1, human 20S proteasome (Homo sapiens, UniProt P28074); test: 20S proteasome inhibition assay (chymotrypsin-like activity, Suc-LLVY-AMC cleavage); format: biochemical; conditions: purified human erythrocyte 20S proteasome 3 μg/mL, Suc-LLVY-AMC 75 μM, 30° C., 10 min preincubation, triplicate ± SD
T1 construct: purified human erythrocyte 20S proteasome; purchased Enzo Life Sciences BML-PW8720-0020; host or cells: purified from human erythrocytes (native tissue material)
Description: Varying concentrations of 1 and 2 were incubated with purified human 20S proteasome. To determine the chymotrypsin-like activity, the fluorogenic substrate Suc-LLVY-AMC was added and fluorescence was recorded to measure the rate of enzyme activity.
1 and 2 were tested for proteasome inhibition using purified human erythrocyte 20S proteasome (Enzo Life Sciences: BML-PW8720-0020). 20S proteasome was diluted to a final concentration of 3 μg/mL in assay buffer (50 mM Tris/HCl, pH 7.5, 25 mM KCl, 10 mM NaCl, 1 mM MgCl2, and 0.03% SDS), and incubated with inhibitors at varying concentrations at 30° C. for 10 minutes. To determine the chymotrypsin-like activity, the reaction was initiated by the addition of the fluorogenic substrate Suc-LLVY-AMC (Enzo Life Sciences, BML-9802-9090) at a final concentration of 75 μM. The rate of cleavage of the substrate was determined by measuring fluorescence using a Spectra Max M2 (Molecular Devices) plate reader at an excitation wavelength of 360 nm and emission of 460 nm. The fluorescence was recorded every 15 seconds for 30 minutes, and the linear regression between 15 and 30 minutes were used to calculate the rate of substrate cleavage (AFU/s). Control wells were included that contained no inhibitor to show the maximum substrate cleavage rate, epoxomicin (0.5 μM) and no enzyme (Blank) to show the minimum response. The IC50 values, the concentration required to reduce the enzyme response by 50 percent, were calculated by Prism 6.0 (GraphPad Software) using a nonlinear regression dose-response, variable slope model based on triplicate measurements±standard deviation.

[2] = Stability in mild acidic conditions; format: physicochemical; conditions: resulting in polymerization
Description: The fifth degree of unsaturation was attributed to cyclization. Two options were therefore available; a macrolactone cyclization between C-1 and the C-2″ hydroxyl, or a β-lactone between C-4″ and the C-2″ hydroxyl. The presence of IR absorption at 1835 cm^−1 was characteristic of a β-lactone carbonyl stretching band and therefore strongly supports cyclization between C-4″ and the hydroxyl at C-2″. The lack of HMBC correlation between H-2″ and C-1 also supported a β-lactone cyclization. The presence of the β-lactone was further confirmed by the instability of 1 in mild acidic conditions resulting in polymerization. The relative configuration at the C-2″ and C-3″ positions on the β-lactone moiety was determined from an analysis of the ^3JHH values.

[3] = tested on: rabbit 20S proteasome; conditions: read-out: IC50, inhibition of chymotrypsin-like activity of the rabbit 20S proteasome; cited from earlier work

| Compound | IC50 [1] | stability in mild acidic conditions [2] | IC50 [3] [nM] |
| --- | --- | --- | --- |
| CCC(C)[C@H](NC(=O)[C@@H](NC(=O)C1OC(=O)C1C(C)C)C(C)C)C(=O)O (some centres unmarked) [Compound 1, Cystargolide A] | 360 nM and 350 nM | instability |  |
| CC(C)C1C(=O)OC1C(=O)N[C@H](C(=O)N[C@H](C(=O)O)C(C)C)C(C)C (some centres unmarked) [Compound 2, Cystargolide B] | 930 nM |  |  |
| belactosin A |  |  | 210 |
| belactosin C |  |  | 210 |
